What is called Kd is the constant that tells how readily two partners part at equilibrium.

These results are taken from patent publication US20040038861A1, “Methods and compositions for normalizing lipid levels in mammalian tissues” (priority 2001, published 2004).

Assay [1] relates to soleus muscle. The assay can be described thus: Glucose transport (2-deoxy-D-glucose uptake) in incubated soleus muscle strips. The assay is classed as cell-based, rat. As to the method: (§1) Soleus muscle preparation. All experiments were performed according to protocols approved by the Institutional Animal Ethics Committee. 5-6 week-old male Wistar rats (160 g) were kept on a 12:12-h light/dark cycle, and fed and watered ad libitum. Animals were anaesthetised with 50 mg/kg Nembutal (pentobarbitone sodium), then sacrificed by cervical dislocation. Soleus muscles were dissected under oxygenated KHB (118 mM NaCl, 4.75 mM KCl, 1.2 mM MgSO4, 24.8 mM NaHCO3, 1.2 mM KH2PO4, 2.54 mM CaCl2, 10 mM glucose, pH 7.4) and teased into halves, then incubated as described below.
Determination of rates of glucose transport in incubated soleus muscle strips. 4-5 muscle strips were added to each flask, which contained 10 ml DMEM. They were pre-incubated with hormones as indicated for 30 min at 30° C. in a shaking water bath, after which 5 μl of 2[^3H]DOG (0.5 μCi/ml) and 5 μl D[^14C(U)]sorbitol (0.05 μCi/ml) were added, then incubated for another 30 min; RIA grade BSA was added to 0.9% (w/v) to prevent non-specific binding of insulin to flasks. Following incubation, muscle strips were transferred to ice-cold KHB for 5-10 min to remove excess [^3H]DOG and [^14C]sorbitol. They were then blotted, frozen, tendons excised, then lyophilized for a further 48 h. Muscles were then weighed, transferred to scintillation vials and digested with 0.5 ml 1 M NaOH at 60° C. for 1 h. Scintillation fluid (4 ml) was added to each vial, and samples counted in a Beckman liquid scintillation spectrometer, preset to count ^14C and ^3H channels simultaneously. The amount of each isotope present in the samples was determined and used to calculate the extracellular space and the intracellular concentration of [^3H]DOG. The accumulation of intracellular [^3H]DOG, a measure of muscle glucose uptake, was calculated by subtracting the concentration of [^3H]DOG in the extracellular space from the corresponding total muscle [^3H]DOG]; extracellular [^3H]DOG was quantified by measuring the muscle concentration of [^14C]sorbitol.
Data analysis. One way ANOVA, Dunnett's Multiple Comparisons Test, and unpaired Student's t-tests were used to calculate the statistical significance of differences, as appropriate. Dose-response curves were fitted to a sigmoidal dose-response algorithm, as follows: Y=minimum+(maximum−minimum)/([…] log ^(EC50^−X), for 2-DOG-uptake; and by a four parameter logistic model, Y=minimum+(maximum−minimum)/(1+10 log ^(EC50^−X)Hill-Coefficient) for total glycogen and [^14C]glucose incorporation. Calculations were performed using Prism v2.0 (GraphPad Software, San Diego, Calif.) to derive values for half-maximal effective concentration (EC50). Displacement curves derived for competition of bound radioligand with cold ligand in transfected cells were calculated according to a one site competition fit using Prism v2.0.

For assay [2], the system named is soleus muscle. In words: cAMP content of isolated soleus muscle from high fat-fed rats. In kind it is cell-based, rat. The procedure: as §1
For the measurement of cAMP in muscle, isolated soleus strips were incubated with stated concentrations of peptides, then lyophilized and deproteinized. Each strip was placed in 400 μl of 0.5 M HClO4 with 5 mM EDTA (phosphodiesterase inhibitor) and sonicated three times in 20 s bursts. Tubes were heated for 3-5 min in boiling water to coagulate protein, then centrifuged (12,000 g, 4° C., 2 min). Supernatant (300 μl) was taken and the pH adjusted to 7.0 with 75 μl of 2 M NH4OH. The samples were refrigerated (4° C., 2 h) to precipitate proteins, then centrifuged under the same conditions as above and 50 μl taken for cAMP measurement.

Assay [3] deals with soleus muscle. The assay can be described thus: Masoprocol effect on CGRP1-evoked NEFA and triglyceride contents in soleus muscle from high fat-fed rats. In kind it is cell-based, rat. From the text: Masoprocol, (nordihydroguaiaretic acid), is a lipoxygenase inhibitor, that has been identified as the active component of Creosote bush extracts. Oral administration of this compound lowers serum NEFA and triglyceride concentrations in rats with fructose-induced hypertriglyceridemia (Gowri et al. 2000, Am. J. Physiol. 279: E593-E600), and decrease blood glucose and triglyceride concentrations in a fat-fed/streptozotocin rat model (Reed et al. 1999, Diabetologia 42: 102-106).

The target in assay [4] is binding sites for CGRP in rat liver membranes. Conditions: cited from earlier work.
[5] abbreviates: 1 pM CGRP1, high fat-fed soleus.
Where [6] appears, read: 100 nM CGRP1, high fat-fed soleus.

Read-outs that look alike come from different tables or passages of the source.

For the substance Rat amylin, in the assay on soleus muscle [1] (amylin 10 nM, insulin 23.7 nM), the “decrease of insulin-stimulated glucose uptake” value stood at 31%. Moreover, the “2-DOG-uptake, insulin-stimulated” value in the assay with soleus muscle [1] (amylin (10 nM) + insulin (23.7 nM)) came out at 19.5±3.6 nmol/g dry-wt muscle/min. Further, the 2-DOG-uptake in the assay on soleus muscle [1] (hormone alone (amylin 10 nM; insulin 23.7 nM), basal 8.8 ± 0.9) is 13.4 ± 2.4 nmol/g dry-wt muscle/min.

Take rat CGRP-1: the “cAMP content, agonist alone” value is 8.6 ± 0.4 pmol/mg in the assay with soleus muscle [2] (1 pM CGRP, control 5.7±0.2) and 9.3 ± 1 pmol/mg in the assay on soleus muscle [2] (100 nM CGRP1, control 5.7±0.2). Further, the figures for the NEFA elevation in the assay on soleus muscle [3] (setting [5]) and in the assay with soleus muscle [3] (setting [6]) were 482 ± 99 nmol/g and 533 ± 114 nmol/g, respectively. For the same substance, the “soleus triglyceride content (decrement)” value with soleus muscle [3] (setting [5]) and with soleus muscle [3] (setting [6]) was 1.2 mmol/g in each case. For the same substance, the Kd in assay [4] (read-out: Kd, high affinity binding site) is approximately 0.044 nM; in assay [4] (read-out: Kd, second binding site), approximately 27 nM.
